27 molecules from patent US10766869B2, “Triazoles for the treatment of demyelinating dieases” (Vertex Pharmaceuticals Incorporated, priority 2015, dated 2020) can be followed below.

Read-outs that look alike come from different tables or passages of the source.

This assay concerns primary rat mixed cortical cells. Nature of the assay: In vitro myelination assay (MBP positive myelin strands, fold myelin pixels above background). As to conditions: for fold induction at 1 µM / fold induction at 10 µM: Rattus norvegicus. The assay is classed as cell-based. A digest of the protocol: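 Myelination read as total MBP-immunopositive strand pixels per well, imaged at 10× after fixation on day 14 and expressed relative to untreated wells, at 1.0 and 10.0 μM. Cells: dissociated postnatal day 1 rat cortex, cultured two weeks with compound, re-dosed at days 6 and 10.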

The mark [1] stands for this setting: 1.0 μM compound, relative to baseline of no added compound, read-out: Fold myelin pixels above background, 1.0 μM.
[2] abbreviates: 10.0 μM compound, relative to baseline of no added compound, read-out: Fold myelin pixels above background, 10.0 μM.
Setting [3] is: 1.0 μM compound, relative to baseline of no added compound, read-out: Fold myelin pixels above background.
Where [4] appears, read: 10.0 μM compound, relative to baseline of no added compound, read-out: Fold myelin pixels above background.
Where [5] appears, read: 10.0 μM compound, read-out: Fold myelin pixels above background relative to baseline of no added compound.
The mark [6] stands for this setting: 1.0 μM compound, read-out: Fold myelin pixels above background relative to baseline of no added compound.

For the molecule `Cc1cc(Nc2ncn(-c3ncncc3F)n2)cc(N2CCN(C3COC3)CC2)c1` [Compound 291, 1-(5-fluoropyrimidin-4-yl)-N-[3-methyl-5-[4-(oxetan-3-yl)piperazin-1-yl]phenyl]-1,2,4-triazol-3-amine], the fold induction at 1 µM under setting [1] was ≤ 1. Further, under setting [2], the fold induction at 10 µM is 1 to 10.

For `Cc1cc(Nc2ncn(-c3cc(F)cc(OC(C)C)c3)n2)cc(N2CCN(C)CC2)c1` [Compound 205, 1-(3-fluoro-5-isopropoxy-phenyl)-N-[3-methyl-5-(4-methylpiperazin-1-yl)phenyl]-1,2,4-triazol-3-amine], under setting [1], the fold induction at 1 µM lay within 100 to 1000. The fold induction at 10 µM under setting [2] was ≤ 1.

Take `Cc1cc(Nc2ncn(-c3cccc(F)n3)n2)cc(N2CCN(C3COC3)CC2)c1` [Compound 154, 1-(6-fluoro-2-pyridyl)-N-[3-methyl-5-[4-(oxetan-3-yl)piperazin-1-yl]phenyl]-1,2,4-triazol-3-amine]: under setting [1], the fold induction at 1 µM is 100 to 1000. Moreover, the fold induction at 10 µM under setting [2] lay within 100 to 1000.

As for `Cc1cc(Nc2ncn(-c3cc(F)cc(F)c3)n2)cc(N2CCOC(C3CCCO3)C2)c1` (stereo not drawn) [Compound 972, 1-(3,5-difluorophenyl)-N-[3-methyl-5-(2-tetrahydrofuran-2-ylmorpholin-4-yl)phenyl]-1,2,4-triazol-3-amine], the “Fold myelin pixels above background relative to baseline of no added compound” value is “− (≤1)” (1.0 μM compound) and “+ (>1 to 10x)” (10.0 μM compound).

For `FC(F)c1cc(Nc2ncn(-c3cccc(C(F)(F)F)c3)n2)nc(N2CC(N3CCOCC3)C2)c1` [Compound 719, 4-(difluoromethyl)-6-(3-morpholinoazetidin-1-yl)-N-[1-[3-(trifluoromethyl)phenyl]-1,2,4-triazol-3-yl]pyridin-2-amine], the fold induction at 1 µM under setting [3] is 1 to 10. In addition, the fold induction at 10 µM under setting [4] was ≤ 1.

Turning to `FC(F)(F)c1cc(Nc2ncn(-c3cnccn3)n2)cc(N2CCC(C3COC3)CC2)c1` [Compound 507, N-[3-[4-(oxetan-3-yl)-1-piperidyl]-5-(trifluoromethyl)phenyl]-1-pyrazin-2-yl-1,2,4-triazol-3-amine], under setting [3], the fold induction at 1 µM was in the range of 10 to 100. Besides, the fold induction at 10 µM under setting [4] is 100 to 1000.

In the case of `Cc1cc(Nc2ncn(-c3cc(F)cc(F)c3)n2)nc(N2CCN(C(=O)OC(C)(C)C)CC2)c1` [Compound 533, tert-butyl 4-[6-[[1-(3,5-difluorophenyl)-1,2,4-triazol-3-yl]amino]-4-methyl-2-pyridyl]piperazine-1-carboxylate], the fold induction at 1 µM under setting [3] lay in the range of 10 to 100. Moreover, the fold induction at 10 µM under setting [4] is 1 to 10.

Regarding `Cc1cc(Nc2ncn(-c3cc(C)nc(C)n3)n2)cc(N2CCN(C3COC3)CC2)c1` [Compound 312, 1-(2,6-dimethylpyrimidin-4-yl)-N-[3-methyl-5-[4-(oxetan-3-yl)piperazin-1-yl]phenyl]-1,2,4-triazol-3-amine], the fold induction at 1 µM under setting [1] lay in the range of 1 to 10. For the same molecule, the fold induction at 10 µM under setting [2] was in the range of 1 to 10.

For the molecule `Cc1cc(Nc2ncn(-c3ccc(C)c(Cl)c3)n2)cc(N2CCN(C3COC3)CC2)c1` [Compound 767, 1-(3-chloro-4-methyl-phenyl)-N-[3-methyl-5-[4-(oxetan-3-yl)piperazin-1-yl]phenyl]-1,2,4-triazol-3-amine], the fold induction at 1 µM under setting [3] lay within 1 to 10. Further, the fold induction at 10 µM under setting [4] was 10 to 100.

For the molecule `Fc1cc(F)cc(-n2cnc(Nc3cc(N4CCOCC4)cc(C(F)(F)F)c3)n2)c1` [Compound 475, 1-(3,5-difluorophenyl)-N-[3-morpholino-5-(trifluoromethyl)phenyl]-1,2,4-triazol-3-amine], the fold induction at 1 µM under setting [3] lay in the range of 100 to 1000. Also, the fold induction at 10 µM under setting [4] is 1000 to 10000.

For the molecule `Cc1cc(Nc2ncn(-c3ccccc3)n2)c(F)c(OC2CCOC2)c1` (single isomer, unassigned) [Compound 1002, N-(2-fluoro-5-methyl-3-tetrahydrofuran-3-yloxy-phenyl)-1-phenyl-1,2,4-triazol-3-amine], the “Fold myelin pixels above background relative to baseline of no added compound” value (1.0 μM compound) is reported as “+++ (>100 to 1000x)”. Moreover, the fold induction at 10 µM under setting [5] fell in the range of 10 to 100.

Take `FC(F)(F)c1cc(Nc2ncn(-c3cnccn3)n2)cc(N2CC3CC(C2)O3)c1` [Compound 513, N-[3-(6-oxa-3-azabicyclo[3.1.1]heptan-3-yl)-5-(trifluoromethyl)phenyl]-1-pyrazin-2-yl-1,2,4-triazol-3-amine]: the fold induction at 1 µM under setting [3] lay in the range of 100 to 1000. Besides, under setting [4], the fold induction at 10 µM is 100 to 1000.

Consider `Cc1cc(Nc2ncn(-c3cccc(F)c3)n2)cc(N2CCN(C3(C)COC3)CC2)c1` [Compound 375, 1-(3-fluorophenyl)-N-[3-methyl-5-[4-(3-methyloxetan-3-yl)piperazin-1-yl]phenyl]-1,2,4-triazol-3-amine], for which the fold induction at 1 µM under setting [1] lay within 1000 to 10000. Besides, the fold induction at 10 µM under setting [2] fell in the range of 10 to 100.

As for `Cc1cc(Nc2ncn(-c3ccc(F)c(F)c3)n2)cc(OCCN2CCOCC2)c1` [Compound 845, 1-(3,4-difluorophenyl)-N-[3-methyl-5-(2-morpholinoethoxy)phenyl]-1,2,4-triazol-3-amine], the fold induction at 1 µM under setting [6] was in the range of 10 to 100. The fold induction at 10 µM under setting [5] was 1 to 10.

`Cc1cc(Nc2ncn(-c3cccc(C(F)(F)F)c3)n2)nc(N2CCOCC2)c1` [Compound 837, 4-methyl-6-morpholino-N-[1-[3-(trifluoromethyl)phenyl]-1,2,4-triazol-3-yl]pyridin-2-amine]: the fold induction at 1 µM under setting [6] was 1 to 10. Under setting [5], the fold induction at 10 µM was 10 to 100.

For `CCN1CC2CC1CN2c1cc(C)cc(Nc2ncn(-c3cc(F)cc(F)c3)n2)c1` (stereo not drawn) [Compound 996, 1-(3,5-difluorophenyl)-N-[3-(5-ethyl-2,5-diazabicyclo[2.2.1]heptan-2-yl)-5-methyl-phenyl]-1,2,4-triazol-3-amine], the fold induction at 1 µM under setting [6] was in the range of 1 to 10. Further, the fold induction at 10 µM under setting [5] was ≤ 1.

Take `Cc1cc(NC(=O)C2CC2)cc(Nc2ncn(-c3ccccc3)n2)c1` [Compound 1058, N-[3-methyl-5-[(1-phenyl-1,2,4-triazol-3-yl)amino]phenyl]cyclopropanecarboxamide]: the fold induction at 1 µM under setting [6] was in the range of 10 to 100. Also, the fold induction at 10 µM under setting [5] was 10 to 100.

Turning to `Cc1cc(Nc2ncn(-c3cccc(OC(F)(F)F)c3)n2)cc(N2CCN(C3COC3)CC2)c1` [Compound 252, N-[3-methyl-5-[4-(oxetan-3-yl)piperazin-1-yl]phenyl]-1-[3-(trifluoromethoxy)phenyl]-1,2,4-triazol-3-amine], the fold induction at 1 µM under setting [1] fell in the range of 1000 to 10000. For the same molecule, under setting [2], the fold induction at 10 µM lay in the range of 10 to 100.

Consider `Cc1cc(Nc2ncn(-c3cc(F)cc(F)c3)n2)nc(OCC2CC2)c1` [Compound 980, 6-(cyclopropylmethoxy)-N-[1-(3,5-difluorophenyl)-1,2,4-triazol-3-yl]-4-methyl-pyridin-2-amine], for which the fold induction at 1 µM under setting [6] was 1 to 10. Moreover, the fold induction at 10 µM under setting [5] lay in the range of 1 to 10.

Take `CCc1cc(Nc2ncn(-c3cnccn3)n2)cc(N2CCN(C(=O)OC(C)(C)C)CC2)c1` [Compound 368, tert-butyl 4-[3-ethyl-5-[(1-pyrazin-2-yl-1,2,4-triazol-3-yl)amino]phenyl]piperazine-1-carboxylate]: the fold induction at 1 µM under setting [1] was 10 to 100. Further, the fold induction at 10 µM under setting [2] is 1 to 10.

Take `CC(C)(C)c1cc(Nc2ncn(-c3cccc(F)c3)n2)cc(N2CCN(C3COC3)CC2)c1` [Compound 97, N-[3-tert-butyl-5-[4-(oxetan-3-yl)piperazin-1-yl]phenyl]-1-(3-fluorophenyl)-1,2,4-triazol-3-amine]: under setting [1], the fold induction at 1 µM lay in the range of 100 to 1000. In addition, the fold induction at 10 µM under setting [2] is 100 to 1000.

In the case of `Cc1cc(Nc2ncn(-c3ccc(F)c(F)c3)n2)cc(C2CN(C3COC3)C2)c1` [Compound 301, 1-(3,4-difluorophenyl)-N-[3-methyl-5-[1-(oxetan-3-yl)azetidin-3-yl]phenyl]-1,2,4-triazol-3-amine], the fold induction at 1 µM under setting [1] was 1000 to 10000. Moreover, the fold induction at 10 µM under setting [2] lay in the range of 100 to 1000.

As to `Cc1cc(Nc2ncn(-c3cc(F)cc(F)c3)n2)cc(N2CCN(CC3CCCN(C)C3)CC2)c1` (stereo not drawn) [Compound 1047, 1-(3,5-difluorophenyl)-N-[3-methyl-5-[4-[(1-methyl-3-piperidyl)methyl]piperazin-1-yl]phenyl]-1,2,4-triazol-3-amine], the fold induction at 1 µM under setting [6] was 1 to 10. Besides, under setting [5], the fold induction at 10 µM was ≤ 1.

Consider `Cc1cc(CN2CCN(C3COC3)CC2)cc(Nc2ncn(-c3cc(F)cc(F)c3)n2)c1` [Compound 596, 1-(3,5-difluorophenyl)-N-[3-methyl-5-[[4-(oxetan-3-yl)piperazin-1-yl]methyl]phenyl]-1,2,4-triazol-3-amine], for which the fold induction at 1 µM under setting [3] was 10 to 100. Further, the fold induction at 10 µM under setting [4] fell in the range of 10 to 100.

For the molecule `Cc1cc(Nc2ncn(-c3cc(F)cc(F)c3)n2)cc(N2CCC(N3CCC(O)CC3)CC2)c1` [Compound 879, 1-[1-[3-[[1-(3,5-difluorophenyl)-1,2,4-triazol-3-yl]amino]-5-methyl-phenyl]-4-piperidyl]piperidin-4-ol], the fold induction at 1 µM under setting [6] is ≤ 1. The fold induction at 10 µM under setting [5] is ≤ 1.

With `Cc1cc(Nc2ncn(-c3cc(F)cc(F)c3)n2)cc(N2CCN(CCN3CCCC3)CC2)c1` [Compound 944, 1-(3,5-difluorophenyl)-N-[3-methyl-5-[4-(2-pyrrolidin-1-ylethyl)piperazin-1-yl]phenyl]-1,2,4-triazol-3-amine], under setting [6], the fold induction at 1 µM lay within 1 to 10. Also, the fold induction at 10 µM under setting [5] was ≤ 1.

For `Clc1cc(Nc2ncn(-c3ccccc3)n2)cc(N2CCOCC2)n1` [Compound 135, 2-chloro-6-morpholino-N-(1-phenyl-1,2,4-triazol-3-yl)pyridin-4-amine], the fold induction at 1 µM under setting [1] lay within 1000 to 10000. Under setting [2], the fold induction at 10 µM is ≤ 1.
